Laboratory results from ChEMBL document CHEMBL1201862, “PubChem BioAssay data set” (2004).
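96-well plates; 48 h exposure; 5 concentrations. Endpoints by linear interpolation between flanking doses. Not reached: highest tested concentration assigned. The concentration for 50% growth inhibition is given as GI50.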 Activity calls are given as the source filed them. Rule as the data show it: active = GI50 up to about 1.1 µM and inactive = higher.

What was measured:
Experiment in all cases: NCI tumour cell line growth inhibition, 48 h
CCRF-CEM = test system: CCRF-CEM
COLO 205 = test system: COLO 205
HT-29 = test system: HT-29
IGROV-1 = test system: IGROV-1
K562 = test system: K562
KM12 = test system: KM12
LXFL 529 = test system: LXFL 529
NCI-H522 = test system: NCI-H522
OVCAR-3 = test system: OVCAR-3
RPMI-8226 = test system: RPMI-8226
SK-MEL-2 = test system: SK-MEL-2
SK-OV-3 = test system: SK-OV-3
SN12C = test system: SN12C
SW-620 = test system: SW-620
U-251 = test system: U-251
UACC-62 = test system: UACC-62
UO-31 = test system: UO-31

SMILES	GI50 (CCRF-CEM)	GI50 (COLO 205)	GI50 (HT-29)	GI50 (IGROV-1)	GI50 (K562)	GI50 (KM12)	GI50 (LXFL 529)	GI50 (NCI-H522)	GI50 (OVCAR-3)	GI50 (RPMI-8226)	GI50 (SK-MEL-2)	GI50 (SK-OV-3)	GI50 (SN12C)	GI50 (SW-620)	GI50 (U-251)	GI50 (UACC-62)	GI50 (UO-31)
COc1cc2c(c(OC)c1OC)-c1ccc(SC)c(=O)cc1C(CC(=O)Oc1cccc(C#N)c1)C2 (stereo unspecified)	0.337 µM (active)	0.336 µM (active)	0.276 µM (active)	2.06 µM (inactive)	0.181 µM (active)	0.292 µM (active)	0.516 µM (active)	0.187 µM (active)	0.232 µM (active)	0.583 µM (active)	0.348 µM (active)	0.046 µM (active)	0.48 µM (active)	0.327 µM (active)	0.354 µM (active)	0.202 µM (active)	1.67 µM (inactive)
CCCCN(CCCC)/C(=N\C#N)NCc1ccccc1	12.1 µM (inactive)	16.4 µM (inactive)	16.5 µM (inactive)	24.8 µM (inactive)	7.43 µM (inactive)	21.3 µM (inactive)	15.4 µM (inactive)	3.95 µM (inactive)	13.6 µM (inactive)	13.7 µM (inactive)	21.7 µM (inactive)	20.7 µM (inactive)	18.8 µM (inactive)	15.8 µM (inactive)	15.3 µM (inactive)	16.3 µM (inactive)	11.2 µM (inactive)
CC(=O)Nc1ccc(C(=O)NN2C(=O)C(Cl)C2c2ccc(O)cc2)cc1 (stereo unspecified)	> 100 µM (inactive)	> 100 µM (inactive)	> 100 µM (inactive)	> 100 µM (inactive)	> 100 µM (inactive)		> 100 µM (inactive)	> 100 µM (inactive)	> 100 µM (inactive)		> 100 µM (inactive)	> 100 µM (inactive)	> 100 µM (inactive)	> 100 µM (inactive)	> 100 µM (inactive)	> 100 µM (inactive)	> 100 µM (inactive)
CC1(C)CC(=O)C(CC2C(=O)c3ccccc3C2=O)C(=O)C1	> 100 µM (inactive)	> 100 µM (inactive)	> 100 µM (inactive)	> 100 µM (inactive)	> 100 µM (inactive)	> 100 µM (inactive)	> 100 µM (inactive)	> 100 µM (inactive)	> 100 µM (inactive)		> 100 µM (inactive)	> 100 µM (inactive)	> 100 µM (inactive)	> 100 µM (inactive)	> 100 µM (inactive)	> 100 µM (inactive)	> 100 µM (inactive)
CCOC(=O)CNC1C(NC(C)=O)C(OC)OC2COC(c3ccccc3)OC21 (stereo unspecified)	> 100 µM (inactive)	> 100 µM (inactive)	> 100 µM (inactive)	> 100 µM (inactive)	> 100 µM (inactive)	> 100 µM (inactive)	> 100 µM (inactive)	> 100 µM (inactive)	> 100 µM (inactive)	> 100 µM (inactive)	> 100 µM (inactive)	> 100 µM (inactive)	> 100 µM (inactive)	> 100 µM (inactive)	> 100 µM (inactive)	> 100 µM (inactive)	> 100 µM (inactive)
OCCCCOC(c1ccccc1)(c1ccccc1)c1ccccc1	> 100 µM (inactive)	> 100 µM (inactive)	> 100 µM (inactive)	> 100 µM (inactive)	> 100 µM (inactive)	> 100 µM (inactive)	> 100 µM (inactive)	> 100 µM (inactive)	> 100 µM (inactive)	> 100 µM (inactive)		> 100 µM (inactive)	> 100 µM (inactive)	> 100 µM (inactive)	> 100 µM (inactive)	> 100 µM (inactive)	> 100 µM (inactive)
C=CCC(C)(C(=O)NCCC)C(=O)c1ccccc1O (stereo unspecified)	> 100 µM (inactive)	> 100 µM (inactive)		> 100 µM (inactive)	> 100 µM (inactive)	> 100 µM (inactive)	> 100 µM (inactive)	> 100 µM (inactive)	> 100 µM (inactive)	> 100 µM (inactive)	> 100 µM (inactive)	> 100 µM (inactive)	> 100 µM (inactive)	> 100 µM (inactive)	> 100 µM (inactive)	> 100 µM (inactive)	> 100 µM (inactive)
COc1cc(Br)c(CC2(C#N)c3ccccc3C3C(N2C(=O)c2ccccc2)C3(Cl)Cl)cc1OC (stereo unspecified)	> 65.5 µM (inactive)	10.4 µM (inactive)	> 65.5 µM (inactive)	> 65.5 µM (inactive)	5.7 µM (inactive)	23.1 µM (inactive)	4.01 µM (inactive)	3.52 µM (inactive)	15.1 µM (inactive)	0.935 µM (active)	> 65.5 µM (inactive)	> 65.5 µM (inactive)	> 65.5 µM (inactive)	> 65.5 µM (inactive)	39.4 µM (inactive)	33.5 µM (inactive)	50.6 µM (inactive)
Cc1c(C(=O)CSc2nc3ccccc3[nH]2)c(=O)n(-c2ccccc2)n1C	> 100 µM (inactive)	> 100 µM (inactive)	> 100 µM (inactive)	> 100 µM (inactive)		> 100 µM (inactive)	> 100 µM (inactive)	> 100 µM (inactive)	41.1 µM (inactive)	> 100 µM (inactive)	> 100 µM (inactive)	> 100 µM (inactive)	> 100 µM (inactive)	> 100 µM (inactive)	> 100 µM (inactive)		> 100 µM (inactive)
Cc1c(/C=N/NC(=O)c2ccccc2)c(=O)n(-c2ccccc2)n1C	> 100 µM (inactive)	> 100 µM (inactive)	> 100 µM (inactive)	> 100 µM (inactive)	> 100 µM (inactive)	> 100 µM (inactive)	> 100 µM (inactive)	> 100 µM (inactive)	> 100 µM (inactive)	> 100 µM (inactive)	> 100 µM (inactive)	> 100 µM (inactive)	> 100 µM (inactive)	> 100 µM (inactive)	> 100 µM (inactive)	> 100 µM (inactive)	> 100 µM (inactive)
CCOC(=O)/C(C#N)=C/c1[nH]c(C(=O)OCc2ccccc2)c(C)c1C	> 100 µM (inactive)	> 100 µM (inactive)	> 100 µM (inactive)	> 100 µM (inactive)	> 100 µM (inactive)	> 100 µM (inactive)	> 100 µM (inactive)	> 100 µM (inactive)	> 100 µM (inactive)	> 100 µM (inactive)	> 100 µM (inactive)	> 100 µM (inactive)	> 100 µM (inactive)	> 100 µM (inactive)	> 100 µM (inactive)	> 100 µM (inactive)	> 100 µM (inactive)
COc1ccc2nc(NC(=O)C(=O)C(C(=O)c3ccccc3-c3ccccc3)C3OC(=O)c4ccccc43)sc2c1 (stereo unspecified)	15.5 µM (inactive)	20.5 µM (inactive)	36.6 µM (inactive)	25.8 µM (inactive)	30.2 µM (inactive)	21.6 µM (inactive)	13.5 µM (inactive)	9.89 µM (inactive)	18.5 µM (inactive)	10.7 µM (inactive)	13.6 µM (inactive)	27.4 µM (inactive)		23.8 µM (inactive)	12.8 µM (inactive)	17.3 µM (inactive)	20.7 µM (inactive)
